Assay results from patent publication US7557213B2, “Substituted quinolones and methods of use” (ChemoCentryx, Inc., priority 2005, dated 2009).
pIC50: −log10 of the molar value.

These compounds were tested against T1, CCXCKR2 receptor (Homo sapiens, UniProt P25106) (assay: Displacement of 125I-labeled SDF-1 from the CCXCKR2 receptor on MCF-7 and/or CCXCKR2-transfected MDA-MB-435S cells (radioligand binding, filtration)). Details: not given.
T1 construct: expressed in transfected cells; host or cells: MDA-MB-435S transfected with pcDNA3.1(+)-hRDC1 and/or MCF-7 (endogenous receptor)
T1 sequence (P25106 whole entry): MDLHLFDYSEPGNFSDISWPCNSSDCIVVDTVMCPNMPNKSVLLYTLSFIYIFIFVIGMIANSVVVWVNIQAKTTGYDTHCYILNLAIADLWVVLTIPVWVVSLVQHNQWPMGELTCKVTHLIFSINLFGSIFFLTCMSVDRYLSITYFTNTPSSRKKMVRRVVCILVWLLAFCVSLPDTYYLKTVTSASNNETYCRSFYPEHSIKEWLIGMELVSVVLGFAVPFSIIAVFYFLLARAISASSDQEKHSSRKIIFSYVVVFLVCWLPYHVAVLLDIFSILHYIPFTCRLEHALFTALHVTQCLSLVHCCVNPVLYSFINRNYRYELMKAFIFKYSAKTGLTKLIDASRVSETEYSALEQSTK

Compound	pIC50
Cc1cccc(Cn2cc(C(=O)c3cccc(C)c3)c(=O)c3ccccc32)c1 [Example 20]	> 7.00
Cc1cccc(Cn2cc(C(=O)c3ccc(C)c(C)c3)c(=O)c3ccccc32)c1 [Example 9]	> 7.00

Same assay, conditions: 125I SDF-1, 3 hr at 4° C., MCF-7 and/or MDA-MB-435S cells; read-out: Activity (concentration displacing at least 50% of the SDF-1 from the CCXCKR2 receptor)

Compound	pIC50
Cc1cc(C(=O)c2cn(Cc3cccc(NC4CC4)n3)c3ccccc3c2=O)cnc1C [Example 110]	4.70 to 6.30
O=C(c1ncc(Br)cn1)c1cn(Cc2cccc(Br)n2)c2ccccc2c1=O [Example 128]	4.70 to 6.30
O=C(c1ccncc1)c1cn(Cc2ccccn2)c2ccccc2c1=O [Example 16]	4.70 to 6.30
Cc1ccc2c(=O)c(C(=O)c3cnc(C)c(C)c3)cn(Cc3cccc(Br)n3)c2n1 [Example 146]	6.30 to 7.00
Cc1cc2c(=O)c(C(=O)c3ccc(C)c(C)c3)cn(Cc3cccc(Br)n3)c2c(C)n1 [Example 109]	4.70 to 6.30
Cc1ccc(C(=O)c2cn(Cc3cccc(-c4ccccc4)n3)c3ccccc3c2=O)cc1C [Example 42]	6.30 to 7.00
Cc1cc(C(=O)c2cn(Cc3cccc(CO)n3)c3ccccc3c2=O)cnc1C [Example 125]	6.30 to 7.00
O=C(c1ccc2c(c1)OCCO2)c1cn(Cc2cccc(C(F)(F)F)n2)c2ccccc2c1=O [Example 229]	6.30 to 7.00
Cc1ccc(C(=O)c2cn(Cc3ccccn3)c3cc4c(cc3c2=O)OCCO4)cc1C [Example 11]	4.70 to 6.30
Cc1cccc(Cn2cc(C(=O)c3ccc(C(F)(F)F)nc3)c(=O)c3ccccc32)n1 [Example 177]	6.30 to 7.00
Cc1cccc(Cn2cc(C(=O)c3cnc4c(c3)OCCO4)c(=O)c3cc(C)c(C)nc32)n1 [Example 191]	6.30 to 7.00
COc1ccc(C(=O)c2cn(Cc3cccc(C)n3)c3nc(C)c(C)cc3c2=O)cc1F [Example 199]	4.70 to 6.30
COc1ccc(C(=O)c2cn(Cc3cccc(Cl)c3)c3ccc(C)nc3c2=O)cc1C [Example 234]	6.30 to 7.00
Cc1ccc(C(=O)c2cn(-c3ccccc3)c3ccccc3c2=O)cc1C [Example 38]	4.70 to 6.30
Cc1ccc(C(=O)c2c(C)n(Cc3cccc(Br)n3)c3ccccc3c2=O)cc1C [Example 72]	4.70 to 6.30
Cc1cc(C(=O)c2cn(Cc3ccccc3F)c3ccccc3c2=O)ccn1 [Example 24]	4.70 to 6.30
O=C(c1cccc(C(F)(F)F)n1)c1cn(Cc2cccc(Br)n2)c2ccccc2c1=O [Example 139]	4.70 to 6.30
COc1cccc(C(=O)c2cn(Cc3cccc(Br)n3)c3ccccc3c2=O)c1 [Example 141]	> 7.00
O=C(c1ccc2c(c1)CCO2)c1cn(Cc2cccc(Br)n2)c2ccccc2c1=O [Example 131]	> 7.00
Cc1cc(C(=O)c2cn(Cc3cccc(C#N)n3)c3ccccc3c2=O)cnc1C [Example 85]	> 7.00
Cc1cccc(Cn2cc(C(=O)c3ccc(N(C)C)cc3)c(=O)c3ccccc32)n1 [Example 158]	> 7.00
Cc1ccc(C(=O)c2cn(Cc3cccc(Br)[n+]3[O-])c3ccccc3c2=O)cc1C [Example 88]	6.30 to 7.00
O=C(c1ccccc1C1OCCCO1)c1cn(Cc2cccc(Br)n2)c2ccccc2c1=O [Example 126]	> 7.00
Cc1ccc(C(=O)c2cn(Cc3cccc(Br)n3)c3ccccc3c2=O)c(C)n1 [Example 185]	> 7.00

Compound	pIC50
Cc1ccc(C(=O)c2cn(Cc3cccc(CN(C)C)n3)c3ccccc3c2=O)cc1C [Example 118]	4.70 to 6.30
O=C(c1ccc(Cl)c(Cl)c1)c1cn(Cc2cccc(Br)n2)c2ccccc2c1=O [Example 100]	> 7.00
Cc1ccc(C(=O)c2cn(Cc3ccccc3F)c3ccccc3c2=O)cc1C [Example 4]	> 7.00
Nc1cccc(Cn2cc(C(=O)c3ccc4c(c3)OCCO4)c(=O)c3ccccc32)n1 [Example 230]	6.30 to 7.00
COc1ccc(C(=O)c2cn(Cc3cccc(Br)n3)c3ccccc3c2=O)nc1C [Example 242]	> 7.00
Cc1ccc2c(n1)c(=O)c(C(=O)c1ccc(C)c(C)c1)cn2Cc1cccc(Br)n1 [Example 119]	> 7.00
Nc1ccc(C(=O)c2cn(Cc3cccc(Br)n3)c3ccccc3c2=O)cn1 [Example 223]	4.70 to 6.30
Cc1ccc(C(=O)c2cn(Cc3ccccn3)c3ccc(C(F)(F)F)cc3c2=O)cc1C [Example 13]	4.70 to 6.30
Cc1cccc(Cn2cc(C(=O)c3ccc(N(C)C)nc3)c(=O)c3ccccc32)n1 [Example 214]	6.30 to 7.00
COc1cc(C(=O)c2cn(Cc3cccc(Br)n3)c3ccccc3c2=O)ccc1Cl [Example 204]	> 7.00
Cc1ccc(C(=O)c2cn(Cc3cccc(Br)n3)c3c(C)ccnc3c2=O)cc1C [Example 116]	4.70 to 6.30
O=C(c1ccccc1-c1cnco1)c1cn(Cc2cccc(Br)n2)c2ccccc2c1=O [Example 167]	4.70 to 6.30
COc1ccc(C(=O)c2cn(Cc3cccc(Br)n3)c3ccccc3c2=O)cc1F [Example 145]	> 7.00
Cc1ccc(C(=O)c2cn(Cc3ccccc3C)c3cc4c(cc3c2=O)OCCO4)cc1C [Example 6]	4.70 to 6.30
Cc1ccc(C)c(C(=O)c2cn(Cc3cccc(Br)n3)c3ccccc3c2=O)c1 [Example 102]	> 7.00
Cc1cccc(Cn2cc(C(=O)c3ccnc(C)c3)c(=O)c3ccccc32)c1 [Example 26]	4.70 to 6.30
COc1ccc(C(=O)c2cn(Cc3cccc(C#N)n3)c3ccccc3c2=O)cc1F [Example 211]	> 7.00
CCN(CC)c1ccc(C(=O)c2cn(Cc3cccc(Br)c3)c3ccccc3c2=O)cn1 [Example 235]	> 7.00
O=C(c1ccncc1)c1cn(Cc2ccccc2F)c2ccccc2c1=O [Example 15]	4.70 to 6.30
COc1ccc(C(=O)c2cn(Cc3cccc(Br)n3)c3ccccc3c2=O)cc1C(=O)N(C)C [Example 181]	4.70 to 6.30
O=C(c1ccc(Cl)s1)c1cn(Cc2cccc(Br)n2)c2ccccc2c1=O [Example 187]	> 7.00
CNc1cccc(Cn2cc(C(=O)c3ccc(C)c(C)c3)c(=O)c3ccccc32)n1 [Example 93]	> 7.00
O=C(c1ccc(C(F)(F)F)nc1)c1cn(Cc2cccc(Br)n2)c2ccccc2c1=O [Example 133]	> 7.00
Cc1ccc(C(=O)c2cn(Cc3cccc(C)n3)c3ccccc3c2=O)nc1 [Example 221]	4.70 to 6.30

Results, then the compound that gave them:

pIC50	Compound
> 7.00	Cc1ccc(C(=O)c2cn(Cc3cccc(NC(=O)C(F)(F)F)n3)c3ccccc3c2=O)cc1C [Example 87]
> 7.00	COc1cc(C(=O)c2cn(Cc3cccc(C)n3)c3ncccc3c2=O)ccc1Cl [Example 166]
> 7.00	O=C(c1ccc(Cl)cc1)c1cn(Cc2cccc(Br)n2)c2ccccc2c1=O [Example 200]
> 7.00	Cc1ccc(C(=O)c2cn(Cc3ccccc3F)c3ccccc3c2=O)nc1C [Example 49]
> 7.00	COc1ccc(C(=O)c2cn(Cc3cccc(C#N)n3)c3ccccc3c2=O)cc1C [Example 207]
> 7.00	Cc1ccc(C(=O)c2cn(Cc3cccc(N4CCCCC4)n3)c3ccccc3c2=O)cc1C [Example 68]
> 7.00	Cc1ccc(C(=O)c2cn(Cc3cccc(C)c3F)c3ccccc3c2=O)cc1C [Example 45]
> 7.00	Cc1cccc(Cn2cc(C(=O)c3ccc(C)c(C)c3)c(=O)c3nc(C)ccc32)n1 [Example 130]
> 7.00	Cc1ccc(C(=O)c2cn(Cc3cccc(C#N)n3)c3ccccc3c2=O)nc1C [Example 80]
> 7.00	Cc1cccc(Cn2cc(C(=O)c3ccc(C)c(C)n3)c(=O)c3ccccc32)n1 [Example 96]
> 7.00	Cc1cc(C(=O)c2cn(Cc3cccc(Br)n3)c3ccc(F)cc3c2=O)cnc1C [Example 67]
> 7.00	Cc1cccc(Cn2cc(C(=O)c3ccc(C)c(C)c3)c(=O)c3ccc(C)nc32)n1 [Example 107]
> 7.00	Cc1cccc(C(=O)c2cn(Cc3ccccn3)c3ccccc3c2=O)c1 [Example 22]
> 7.00	CN(C)c1ccc(C(=O)c2cn(Cc3cccc(Br)n3)c3ccccc3c2=O)cn1 [Example 197]
> 7.00	CN(C)Cc1ccccc1C(=O)c1cn(Cc2cccc(Br)n2)c2ccccc2c1=O [Example 129]
> 7.00	CN(C)C(=O)c1cccc(C(=O)c2cn(Cc3cccc(Br)n3)c3ccccc3c2=O)c1 [Example 180]

pIC50	Compound
> 7.00	Cc1cccc(Cn2cc(C(=O)c3ccc(Cl)cc3)c(=O)c3ccccc32)n1 [Example 184]
> 7.00	CC(C)(C)c1ccc(C(=O)c2cn(Cc3cccc(Br)n3)c3ccccc3c2=O)cc1 [Example 114]
> 7.00	CN(C)c1cccc(C(=O)c2cn(Cc3cccc(Br)n3)c3ccccc3c2=O)c1 [Example 97]
> 7.00	Cc1cccc(Cn2cc(C(=O)c3cnc(C)c(C)c3)c(=O)c3ccccc32)n1 [Example 50]
> 7.00	Cc1ccc(C(=O)c2cn(Cc3ccccn3)c3ccccc3c2=O)cc1C [Example 8]
> 7.00	Cc1cccc(Cn2cc(C(=O)c3ccc(C)c(C)c3)c(=O)c3ncccc32)n1 [Example 134]
> 7.00	Cc1cc(C(=O)c2cn(Cc3cccc(N)n3)c3ccccc3c2=O)cnc1C [Example 91]
> 7.00	Cc1ccc(C(=O)c2cn(C(C)c3cccc(Br)n3)c3ccccc3c2=O)cc1C (stereo not shown) [Example 75]
> 7.00	COc1ccc(C(=O)c2cn(Cc3cccc(C#N)n3)c3ncccc3c2=O)cc1C [Example 194]
> 7.00	COc1ccc(C(=O)c2cn(Cc3cccc(Br)n3)c3ccccc3c2=O)cc1C1OCCCO1 [Example 136]
> 7.00	Cc1ccc(C(=O)c2cn(Cc3cccc(Br)n3)c3nc(C)c(C)cc3c2=O)cc1C [Example 159]
> 7.00	Cc1ccc(C(=O)c2cn(Cc3ncon3)c3ccccc3c2=O)cc1C [Example 29]
> 7.00	CSc1cccc(Cn2cc(C(=O)c3ccc(C)c(C)c3)c(=O)c3ccccc32)n1 [Example 77]
> 7.00	COc1ccc(C(=O)c2cn(Cc3cccc(Br)n3)c3ncccc3c2=O)cc1F [Example 174]
> 7.00	CN(C)C(=O)c1ccccc1C(=O)c1cn(Cc2cccc(Br)n2)c2ccccc2c1=O [Example 168]
> 7.00	COc1ccc(C(=O)c2cn(Cc3cccc(Br)n3)c3ncccc3c2=O)cc1 [Example 173]
